Reference: PMC12195982, “Design, Synthesis, and In Vitro Evaluation of 4-(Arylchalcogenyl)methyl)-1H-1,2,3-triazol-1-yl-menadione: Exploring Their Potential Against Tuberculosis” (Pharmaceuticals, 2025)
Values after ≈ are worked out from the molar mass of the structure shown. Where two headings read alike, the source gives them in different places.

Legend:
Mtb = details: cited from earlier work
[1] = test system: Mtb strain H37Rv ATCC 27294; assay: Microplate Alamar Blue Assay (MABA), susceptible strain; type: cell-based; details: Mycobacterium tuberculosis
VERO cell line = type: cell-based; details: for cytotoxicity: MTT method, VERO cell line
Protocol: First, a VERO cell line suspension was prepared and distributed into each of the 96 wells of the culture plate, which was then incubated for 48 h to allow the cells to adhere. After this period, the suspension medium was discarded, and the cells were exposed to the substances under study, leaving them in the wells for a period of between 24 and 48 h. After this, the substance was discarded, and the cells were washed with a buffer, with MTT being added, followed by a 3 h incubation. After this period, the MTT was discarded, and Dimethyl sulfoxide (DMSO) was added to solubilize the formazan crystals generated. Finally, the absorbance of each well of the plate was obtained using a microplate spectrophotometer. The absorbance was quantified based on the readings that the equipment makes, based on the different intensities of the purple color in the wells of the plate; the more purple the well, the more viable cells there are.

protein kinase B (PknB) = details: cited from earlier work
[2] = Mtb H37Rv, strain sensitive to all first- and second-line drugs, MABA, triplicate, read-out: MIC
[3] = as quoted in sections 2.2 and 2.3, strain not stated, read-out: MIC (antimycobacterial activity)

| SMILES | MIC [1, 2] [µg/mL] | other results |
| --- | --- | --- |
| C=CCC1[Se]c2ccccc2C1=O (centres unmarked) [Compound 1] |  | MIC (Mtb; anti-TB activity): 12.5 µg/mL (≈ 52.7 µM) |
| CC1=C(Cn2cc(CSc3ccccc3)nn2)C(=O)c2ccccc2C1=O [Compound 10a, 2-methyl-3-((4-((phenylthiol)methyl)-1H-1,2,3-triazolyl)methyl)naphthalene-1,4-dione] | 100 (≈ 267 µM) |  |
| NC(=O)c1cnccn1 [PZA, pyrazinamide, reference compound] | 100 (≈ 813 µM) |  |
| CC1=C(Cn2cc(CSc3ccc(Cl)cc3)nn2)C(=O)c2ccccc2C1=O [Compound 10b, 2-((4-(((4-chlorophenyl)thiol)methyl)-1H-1,2,3-triazolyl)methyl)-3-methylnaphthalene-1,4-dione] | > 100 |  |
| O=C1NC(c2ccc(OCc3cn(-c4ccc(F)c(F)c4)nn3)cc2)Nc2ccccc21 (centres unmarked) [Compound 5] |  | MIC (Mtb; anti-TB action): 3.12 µg/mL (≈ 7.2 µM) |
| CC1=C(Cn2cc(CSCc3ccco3)nn2)C(=O)c2ccccc2C1=O [Compound 10e, 2-((4-(((furan-2-ylmethyl)thiol)methyl)-1H-1,2,3-triazolyl)methyl)-3-methylnaphthalene-1,4-dione] | > 100 |  |
| CC1=C(C(c2ccc(C)cc2)n2cc(C[Se]c3ccccc3)nn2)C(=O)c2ccccc2C1=O (centres unmarked) [Compound 9h, 2-methyl-3-((4-((phenylselanyl)methyl)-1H-1,2,3-triazolyl)(p-methylphenyl)methyl) naphthalene-1,4-dione] | 24.9 (≈ 48.7 µM) | cytotoxicity (VERO cell line): minimal cytotoxicity; toxicity at concentrations of up to 100 µg/mL (VERO cell line): non-toxic |
| CC1=C(C(c2ccccc2)n2cc(C[Se]c3ccccc3)nn2)C(=O)c2ccccc2C1=O (centres unmarked) [Compound 9g, 2-methyl-3-(phenyl(4-((phenylselanyl)methyl)-1H-1,2,3-triazolyl)methyl)naphthalene-1,4-dione] | 12.5 (≈ 25.1 µM) | cytotoxicity (VERO cell line): minimal cytotoxicity; toxicity at concentrations of up to 100 µg/mL (VERO cell line): non-toxic; MIC [1, 3]: 3.12 µg/mL (≈ 6.26 µM) |
| CC1=C(C(c2ccccc2)n2cc(CSc3ccccc3)nn2)C(=O)c2ccccc2C1=O (centres unmarked) [Compound 10g, 2-methyl-3-(phenyl(4-((phenylthiol)methyl)-1H-1,2,3-triazolyl)methyl)naphthalene-1,4-dione] | > 100 |  |
| O=C1c2c(O)ccc(O)c2C(=O)c2c(NCCNCCO)ccc(NCCNCCO)c21 [co-crystallized ligand, 1,4-dihydroxy-5,8-bis({2-[(2-hydroxyethyl)amino]ethyl}amino)-9,10-anthracenedione] |  | IC50 (protein kinase B (PknB)): 800 nM |
| CC1=C(C(c2ccc(C)cc2)n2cc(CSc3ccccc3)nn2)C(=O)c2ccccc2C1=O (centres unmarked) [Compound 10h, 2-methyl-3-((4-((phenylthiol)methyl)-1H-1,2,3-triazolyl)(p-methylphenyl)methyl)naphthalene-1,4-dione] | > 100 |  |
| CC1=C(C(C)n2cc(CSc3ccccc3)nn2)C(=O)c2ccccc2C1=O (centres unmarked) [Compound 10f, 2-methyl-3-(1-(4-((phenylthiol)methyl)-1H-1,2,3-triazolyl)ethyl)naphthalene-1,4-dione] | 100 (≈ 257 µM) |  |
| CC1=C(Cn2cc(C[Se]c3ccccc3)nn2)C(=O)c2ccccc2C1=O [Compound 9a, 2-methyl-3-((4-((phenylselanyl)methyl)-1H-1,2,3-triazolyl)methyl)naphthalene-1,4-dione] | 6.23 (≈ 14.8 µM) | cytotoxicity (VERO cell line): minimal cytotoxicity; toxicity at concentrations of up to 100 µg/mL (VERO cell line): non-toxic; MIC [1, 3]: 6.76 µg/mL (≈ 16 µM) |
| CC1=C(Cn2cc(CSc3ccc(C)cc3)nn2)C(=O)c2ccccc2C1=O [Compound 10c, 2-methyl-3-((4-((p-methylphenylthiol)methyl)-1H-1,2,3-triazolyl)methyl)naphthalene-1,4-dione] | > 100 |  |
| CC1=C(Cn2cc(C[Se]c3c(C)cc(C)cc3C)nn2)C(=O)c2ccccc2C1=O [Compound 9d, 2-((4-((2,4,6-trimethyl-phenylselanyl)methyl)-1H-1,2,3-triazolyl)methyl)-3-methylnaphthalene-1,4-dione] | > 99.9 |  |
| CC1=C(C(C)n2cc(C[Se]c3ccccc3)nn2)C(=O)c2ccccc2C1=O (centres unmarked) [Compound 9f, 2-methyl-3-(1-(4-((phenylselanyl)methyl)-1H-1,2,3-triazolyl)ethyl)naphthalene-1,4-dione] | 6.23 (≈ 14.3 µM) | MIC [1, 3]: > 43.6 µg/mL |
| CC1=C(Cn2cc(C[Se]c3ccc(Cl)cc3)nn2)C(=O)c2ccccc2C1=O [Compound 9b, 2-((4-(((4-chlorophenyl)selanyl)methyl)-1H-1,2,3-triazolyl)methyl)-3-methylnaphthalene-1,4-dione] | 3.2 (≈ 7.01 µM) | cytotoxicity (VERO cell line): minimal cytotoxicity; toxicity at concentrations of up to 100 µg/mL (VERO cell line): non-toxic; MIC [1, 3]: 3.2 µg/mL (≈ 7.01 µM) |
| CC1=C(Cn2cc(C[Se]c3cccc(C(F)(F)F)c3)nn2)C(=O)c2ccccc2C1=O [Compound 9c] | ≤ 49.9 |  |
| NNC(=O)c1ccncc1 [INH, isoniazid, reference compound] | 0.12 (≈ 0.875 µM) |  |
| O=C1NC(c2ccc(OCc3cn(-c4ccc(F)cc4F)nn3)cc2)Nc2ccccc21 (centres unmarked) [Compound 4] |  | MIC (Mtb; anti-TB action): 0.78 µg/mL (≈ 1.8 µM) |
| CC1=C(Cn2cc(CSc3ccccc3C)nn2)C(=O)c2ccccc2C1=O [Compound 10d, 2-methyl-3-((4-((o-methylphenylthiol)methyl)-1H-1,2,3-triazolyl)methyl)naphthalene-1,4-dione] | > 100 |  |
| C/C(=N/N=C1/NC(=O)CS1)c1ccc(-c2ccccc2)cc1 [Compound 2] |  | MIC (Mtb; anti-TB activity): 12.5 µg/mL (≈ 40.4 µM) |
| CC1=C(Cn2cc(C[Se]c3ccc4ccccc4c3)nn2)C(=O)c2ccccc2C1=O [Compound 9e, 2-methyl-3-((4-((naphthalenylselanyl)methyl)-1H-1,2,3-triazolyl)methyl)naphthalene-1,4-dione] | 99.9 (≈ 211 µM) |  |
